In PMC9822497, “Identification of Polyphenol Derivatives as Novel SARS-CoV-2 and DENV Non-Nucleoside RdRp Inhibitors” (Molecules, 2022):
Like-named read-outs stand apart in the source and are kept apart here.

How the values were obtained:
in vitro [1] = conditions: human
in vitro [2] = conditions: African green monkey
[3] = target: Dengue virus RdRp (DENV NS5) (Dengue virus type 3, UniProt Q6YMS4); test: Fluorescent plate DENV RdRp assay; type: biochemical; conditions: for IC50: purified recombinant Dengue virus RdRp, average ± SD of 2 independent experiments; for Detectable inhibition towards DENV RdRp: screen of Table 1 compounds
Protocol: To further exploit pan-RNA virus inhibition of the compounds in Table 1, the compounds were evaluated as potential inhibitors of the RdRp domain of DENV NS5. We used a fluorescent-based assay to screen the compounds from Table 1 as potential DENV RdRp inhibitors.
Expression and purification of recombinant Dengue virus NS5 has been described previously. Florescent plate assay based on poly rC RNA and the fluorescent dye PicoGreen was well established for screening inhibitors against Dengue virus RdRp activity. RdRp assays were performed in a 60 μL reaction mixture containing 1.5 μM DENV NS5, 1 µg poly rC, 100 μM GTP, various concentrations of compounds, 5% DMSO, 40 mM Tris–HCl (pH 7.0), 2 mM MnCl2, and 5 mM DTT. The reaction was incubated at 30 °C for 60 min and terminated with 10 mM EDTA after which 100 μL of 200-fold diluted fluorescent dye PicoGreen in TE buffer was added to each well and incubated for 5 min at room temperature. Microplate reader was used to quantitate the amount of dsRNA Fluorescence, under excitation and emission wavelengths of 480 and 520 nm, respectively. Dose-response data were analyzed by nonlinear regression using GraphPad Prism 9.2.0 software. The mean of IC50 values and standard deviation (SD) were determined from the results of two independent experiments.

[4] = target: SARS-CoV-2 RdRp complex nsp12/nsp8/nsp7 (Severe acute respiratory syndrome coronavirus 2, UniProt P0DTD1); test: biochemical; conditions: for inhibition at 50 µM: read-out: Inhibition Rate (%); for IC50: seven concentrations 0.4 to 100 μM, mean ± SD of two independent experiments, read-out: IC50 against SARS-CoV-2 RdRp
DENV3 [5] = test: DENV3 cell-based qRT-PCR antiviral assay in A549 cells; conditions: for EC50 / Selective Index: DENV3/A549
Protocol: The virus DENV3 clinical strain and A549 cells were used in the cell-based qRT-PCR antiviral assays. Evaluation of antiviral activity was performed as described previously. Briefly, cells infected by dengue virus in the presence of 5-fold serial dilutions of compounds were maintained for 72 h. Supernatant was collected and the virus yield was measured by Cells Direct One-step qRT-PCR kit (Thermo Fisher), according to manufacturer’s instructions. Dose-response data were analyzed by nonlinear regression using GraphPad Prism software. The toxicity of compounds was evaluated in standard MTS analysis without virus in A549 cell line. Graphpad Prism 9.2.0 was used to calculate EC50 (half maximal effective concentration) and CC50 (half cytotoxic concentration) values.

SARS-CoV-2 [6] = test: microbe, parasite or virus in culture; type: cell-based; conditions: for EC50: Severe acute respiratory syndrome coronavirus 2, Vero C1008
DENV = system: DENV; parameters: method as in PMID 26574011, PMID 33160000; conditions: cited from earlier work
SARS-CoV-2 [7] = conditions: cited from earlier work
DENV3 [8] = system: DENV3; parameters: method as in PMID 34424050; conditions: DENV3 in vitro; cited from earlier work
DENV2 = system: DENV2; parameters: method as in PMID 34424050; conditions: DENV2 in vitro; cited from earlier work
[9] = preliminary screening, single concentration of 50 μM

Chain of Dengue virus RdRp (DENV NS5) (Q6YMS4 2491-3390 limits assumed): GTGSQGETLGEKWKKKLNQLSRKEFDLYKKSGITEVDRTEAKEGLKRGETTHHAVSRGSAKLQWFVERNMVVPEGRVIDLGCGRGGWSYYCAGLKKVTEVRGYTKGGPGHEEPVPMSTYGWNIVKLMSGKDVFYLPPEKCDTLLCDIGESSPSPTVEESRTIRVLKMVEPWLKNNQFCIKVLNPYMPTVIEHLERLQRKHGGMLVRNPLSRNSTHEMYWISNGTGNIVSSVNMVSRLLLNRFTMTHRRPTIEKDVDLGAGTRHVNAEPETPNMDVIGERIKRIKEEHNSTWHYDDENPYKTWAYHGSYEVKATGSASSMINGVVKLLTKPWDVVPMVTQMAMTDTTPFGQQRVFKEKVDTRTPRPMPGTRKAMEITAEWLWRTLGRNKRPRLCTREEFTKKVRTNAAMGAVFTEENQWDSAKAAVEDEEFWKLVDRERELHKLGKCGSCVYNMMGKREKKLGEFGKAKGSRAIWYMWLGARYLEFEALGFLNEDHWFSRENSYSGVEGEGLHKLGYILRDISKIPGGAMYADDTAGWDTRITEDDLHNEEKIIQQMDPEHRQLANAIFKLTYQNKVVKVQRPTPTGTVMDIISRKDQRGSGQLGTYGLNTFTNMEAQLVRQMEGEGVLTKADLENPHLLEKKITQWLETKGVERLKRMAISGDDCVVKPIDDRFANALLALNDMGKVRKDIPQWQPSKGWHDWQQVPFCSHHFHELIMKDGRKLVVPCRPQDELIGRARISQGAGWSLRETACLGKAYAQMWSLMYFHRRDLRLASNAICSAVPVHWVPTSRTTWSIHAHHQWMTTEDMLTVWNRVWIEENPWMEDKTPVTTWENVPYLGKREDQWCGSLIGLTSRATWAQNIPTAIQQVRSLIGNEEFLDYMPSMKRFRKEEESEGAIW

## N#Cc1ccc(S(=O)(=O)N2CCN(C(=O)c3cc(O)c(O)c(O)c3)C(C(=O)NCc3ccc(-c4ccccc4)cc3)C2)cc1 (centres unmarked) [DF-51]
In vitro [1]
  CC50: > 100 µM
In vitro [2]
  CC50: > 100 µM
[3]
  IC50: 4.8 ± 0.7 µM
  Detectable inhibition towards DENV RdRp: detectable inhibition
[4]
  Inhibition of RdRp activity at 10 μM (gel): remained partially active
  IC50: 22 ± 1.3 µM
[4]; [9]
  inhibition at 50 µM: 90%
DENV3 [5]
  Inhibition of DENV3 in A549 cells: moderate inhibition
  EC50: 21.5 ± 14.9 µM
  Selective Index: >4.6
SARS-CoV-2 [6]
  Antiviral activity against SARS-CoV-2 in vitro: no significant antiviral activity
  EC50: > 89 µM

## Nc1ccc(S(=O)(=O)N2CCN(C(=O)c3cc(O)c(O)c(O)c3)CC2C(=O)NCc2ccc(-c3ccccc3)cc2)cc1 (centres unmarked) [DF-69]
other
  melting point: 192 to 195 °C
[4]
  inhibition at 50 µM: 72%

## CN(C(=O)C1CN(C(=O)c2cc(O)c(O)c(O)c2)CCN1S(=O)(=O)c1ccc(N)cc1)c1ccccc1 (centres unmarked) [DF-63]
other
  melting point: 172 to 175 °C
[4]
  inhibition at 50 µM: 75%

## O=c1cc(-c2ccccc2)oc2cc(O)c(O)c(O)c12 [Baicalein, reference compound]
In vitro [2]
  CC50: 86 µM
[4]
  Inhibition of RdRp activity at 10 μM (gel): remained partially active
SARS-CoV-2 [6]
  Selective Index: 19.1
  EC50: 4.5 µM

## Nc1ccc(S(=O)(=O)N2CCN(C(=O)c3cc(O)c(O)c(O)c3)CC2C(=O)NCc2cccc3ccccc23)cc1 (centres unmarked) [DF-67]
other
  melting point: 189 to 192 °C
[4]
  inhibition at 50 µM: 83%

## Nc1ccc(S(=O)(=O)N2CCN(C(=O)c3cc(O)c(O)c(O)c3)C(C(=O)NCc3ccco3)C2)cc1 (centres unmarked) [DF-36]
other
  melting point: 181 to 184 °C
[4]
  Inhibition of RdRp activity at 10 μM (gel): remained partially active
  inhibition at 50 µM: 87%

## O=C(NO)c1ncc(CS(=O)(=O)c2ccccc2)c(CO)c1O [DMB220]
DENV
  EC50: 2.7 ± 0.6 µM

## Nc1ccc(S(=O)(=O)N2CCN(C(=O)c3cc(O)c(O)c(O)c3)CC2C(=O)NCc2cccs2)cc1 (centres unmarked) [DF-68]
other
  melting point: 213 to 216 °C
[4]
  inhibition at 50 µM: 73%

## COc1ccc(CNC(=O)C2CN(S(=O)(=O)c3ccc(N)cc3)CCN2C(=O)c2cc(O)c(O)c(O)c2)cc1 (centres unmarked) [DF-35]
other
  melting point: 192 to 195 °C
[4]
  inhibition at 50 µM: 81%

## Nc1ccc(S(=O)(=O)N2CCN(C(=O)c3cc(O)c(O)c(O)c3)CC2C(=O)Nc2ccccc2)cc1 (centres unmarked) [DF-57]
other
  melting point: 173 to 176 °C
[4]
  inhibition at 50 µM: 85%

## CCC(CC)COC(=O)[C@H](C)N[P@](=O)(OC[C@H]1O[C@@](C#N)(c2ccc3c(N)ncnn23)[C@H](O)[C@@H]1O)Oc1ccccc1 [Remdesivir, reference compound]
In vitro [2]
  CC50: 10.1 µM
SARS-CoV-2 [6]
  EC50: 0.046 ± 0.0002 µM

## Nc1ccc(S(=O)(=O)N2CCN(C(=O)c3cc(O)c(O)c(O)c3)C(C(=O)NCc3ccc(-c4ccccc4)cc3)C2)cc1 (centres unmarked) [DF-47]
other
  melting point: 193 to 196 °C
In vitro [1]
  CC50: > 100 µM
In vitro [2]
  CC50: > 100 µM
[3]
  IC50: 14 ± 2.3 µM
  Detectable inhibition towards DENV RdRp: detectable inhibition
[4]
  Inhibition of RdRp activity at 10 μM (gel): remained partially active
  IC50: 9.2 ± 1.1 µM
[4]; [9]
  inhibition at 50 µM: 92%
DENV3 [5]
  Inhibition of DENV3 in A549 cells: moderate inhibition
  EC50: 51.9 ± 26.3 µM
  Selective Index: >1.9
SARS-CoV-2 [6]
  Antiviral activity against SARS-CoV-2 in vitro: no significant antiviral activity
  EC50: > 100 µM

## Bemnifosbuvir
SARS-CoV-2 [7]
  EC90: 0.47 µM
DENV3 [8]
  EC50: 0.77 µM
DENV2
  EC50: 0.48 µM

## CC(C)(C)OC(=O)N1CCC2(CCN(C(=O)C3CN(C(=O)c4cc(O)c(O)c(O)c4)CCN3S(=O)(=O)c3ccc(N)cc3)C2)C1 (centres unmarked) [DF-71]
other
  melting point: 192 to 195 °C
[4]
  inhibition at 50 µM: 70%

## COc1ccc(CNC(=O)C2CN(C(=O)c3cc(O)c(O)c(O)c3)CCN2S(=O)(=O)c2ccc(N)cc2)cc1 (centres unmarked) [DF-64]
other
  melting point: 202 to 205 °C
[4]
  inhibition at 50 µM: 80%

## CC(C)C(=O)OC[C@H]1O[C@@H](n2ccc(NO)nc2=O)[C@H](O)[C@@H]1O [Molnupiravir]
SARS-CoV-2 [7]; nucleoside RdRp inhibitors
  EC50: 0.3 µM

## O=C(O)[C@H]1O[C@@H](Oc2cc3oc(-c4ccccc4)cc(=O)c3c(O)c2O)[C@H](O)[C@@H](O)[C@@H]1O [Baicalin]
SARS-CoV-2 [7]; SARS-CoV-2 inhibitors
  EC50: 9 µM
